From patent US20230346969A1, “INTERMEDIATE FOR PREPARING ANTIBODY-DRUG CONJUGATE (ADC), PREPARATION METHOD THEREFOR, AND USE THEREOF” (priority 2020, published 2023) come the findings set out here.

The test system of one data set is COLO205 cells. The data set can be described thus: COLO205 mouse transplanted tumor model. The class given is in vivo, BALB/c nu/nu mice. The following applies: COLO205 xenograft, intraperitoneal, days 7, 11, 15, 19; p<0.001 vs hRS7-VK-SN38. From the text:
(§1) Five-week-old female athymic BALB/c nu/nu mice were purchased from Charles River Company (Shanghai, China), and mice were randomly divided into 5-6 mice/group. Animal handling and procedures were approved and performed in accordance with the requirements of the Institutional Animal Care and Use Committee (IACUC) of Shanghai Institute of Materia Medica, Chinese Academy of Sciences. All models were inoculated subcutaneously on the side of mice. BXPC-3, HCC1806 and NCIH1688 cells were established by injecting and homogenizing 5 × 10^6 cells in Matrigel matrix. COLO205 cells were established by injecting and suspending 1 × 10^7 cells in Matrigel matrix. […] The percentage of inhibition was calculated by the following formula: (1-average tumor volume of the treatment group/average tumor volume of the control group)×100%. Toxicity of the different treatment groups was assessed by monitoring weight loss.
Mice inoculated with COLO205 cells (n = 6 per group) were treated with ADC or control drug on days 7, 11, 15, and 19, and tumor volume was measured two or three times a week. Statistical significance between treatment and control groups was assessed using a two-tailed t-test. ***P<0.001, comparing hRS7-VK-PTX with hRS7; p<0.001, comparing hRS7-VK-PTX with hRS7-VK-SN38, data = mean ± SD, the results are shown in FIG. 1c.

The subject of data set [1] is mixture of Trop-2-positive tumor cells BXPC-3 and Trop-2-negative tumor cells NCIH1688. The data set can be described thus: Bystander effect: transplanted tumor from mixture of BXPC-3 and NCIH1688 cells. It is filed as in vivo, BALB/c-nu/nu mice. The following applies: 10 mg/kg, transplanted tumors heterogeneously expressing Trop-2. The source says: (§2) Five-week-old female athymic BALB/c nu/nu mice were purchased from Charles River Company (Shanghai, China), and mice were randomly divided into 5-6 mice/group. Animal handling and procedures were approved and performed in accordance with the requirements of the Institutional Animal Care and Use Committee (IACUC) of Shanghai Institute of Materia Medica, Chinese Academy of Sciences. All models were inoculated subcutaneously on the side of mice. BXPC-3, HCC1806 and NCIH1688 cells were established by injecting and homogenizing 5 × 10^6 cells in Matrigel matrix. COLO205 cells were established by injecting and suspending 1 × 10^7 cells in Matrigel matrix. After the tumor volume reached about 200 mm^3, the tumor-bearing mice were randomly divided into treatment groups and a control group according to the tumor volume. Each drug was administered intraperitoneally. […] The percentage of inhibition was calculated by the following formula: (1-average tumor volume of the treatment group/average tumor volume of the control group)×100%. Toxicity of the different treatment groups was assessed by monitoring weight loss.
(§3) A mixture of Trop-2-positive tumor cells BXPC-3 and Trop-2-negative tumor cells NCIH1688 or NCIH1688 cells alone were inoculated into BALB/c-nu/nu mice (FIG. 1e, right panel), and the “bystander effect” of hRS7-VK-PTX was detected in a mouse transplanted tumor model.

In another data set the test system is HCC1806 cells. The experiment in a line: HCC1806 mouse transplanted tumor model. It is filed as in vivo, BALB/c nu/nu mice.
From the text: as §1
Mice inoculated with HCC1806 cells (n = 6 per group) were treated on days 7, 10 and 14. Tumors were measured two or three times per week. On day 20, statistical significance between treatment and control groups was assessed using a two-tailed t-test. *P <0.05, comparing hRS7-VK-PTX treatment group with hRS7-VK-SN38 treatment group, data = mean ± SD, the results are shown in FIG. 7b.

A short description of data set [2]: Adverse effects and weight loss of mice treated in the efficacy models. It is filed as in vivo, BALB/c nu/nu mice. The conditions noted are these: mouse, in vivo. From the text: Five-week-old female athymic BALB/c nu/nu mice were purchased from Charles River Company (Shanghai, China), and mice were randomly divided into 5-6 mice/group. Animal handling and procedures were approved and performed in accordance with the requirements of the Institutional Animal Care and Use Committee (IACUC) of Shanghai Institute of Materia Medica, Chinese Academy of Sciences. All models were inoculated subcutaneously on the side of mice. BXPC-3, HCC1806 and NCIH1688 cells were established by injecting and homogenizing 5 × 10^6 cells in Matrigel matrix. COLO205 cells were established by injecting and suspending 1 × 10^7 cells in Matrigel matrix. After the tumor volume reached about 200 mm^3, the tumor-bearing mice were randomly divided into treatment groups and a control group according to the tumor volume. Each drug was administered intraperitoneally. Mice were injected at doses of 3 or 10 mg/kg (10 mL/kg). Tumor volume was defined as length × ½ × width × width. The percentage of inhibition was calculated by the following formula: (1-average tumor volume of the treatment group/average tumor volume of the control group)×100%. Toxicity of the different treatment groups was assessed by monitoring weight loss.

Another data set deals with NCIH1688 cells. The experiment in a line: Transplanted tumor from NCIH1688 cells alone (not expressing Trop-2). The class given is in vivo, BALB/c-nu/nu mice. The conditions noted are these: hRS7-VK-PTX 10 mg/kg, hRS7-VK-MMAE 3 mg/kg.
From the text: as §2, §3

In data set [3] the test system is MDA-MB-231 or CFPAC-1 cells. The data set can be described thus: Detection of ADC endocytosis rate by flow cytometry. It is filed as cell-based. The conditions noted are these: Trop-2 expressing cells, 5 µg/mL ADC, 37° C. The protocol: To assess the endocytosis rate of ADC, MDA-MB-231 or CFPAC-1 cells (1 × 10^6) were incubated with 5 µg/mL of ADC samples in a staining medium for 30 min on ice, and washed twice, and then it was placed in a fresh complete medium. Internalization was initiated in a humidified chamber at 37° C. After the incubation, cells were washed twice with an ice-cold staining medium and then stained with goat anti-human IgG-PE. Cells were analyzed by flow cytometry to detect the level of ADC remaining on the surface.
The internalization rate of ADC may affect its inhibitory efficiency against tumor cells.
On the technique in general: In flow cytometry, cells or beads pass a laser one at a time.

Another data set deals with SKBR3 cells. The experiment in a line: Endocytosis and intracellular localization of ADC by confocal microscopy. The conditions noted are these: 5 µg/mL, 37° C., 45 or 90 min. The class given is cell-based. The protocol: SKBR3 cells were incubated with 5 µg/mL of hRS7-VK-PTX or hRS7-VK-SN38 in a 24-well plate (1 × 10^4 cells/well) in a 5% CO2, 37° C. incubator for 45 or 90 min. Cells were washed once with PBS, fixed and permeabilized. After washing, cells were stained with 488 goat anti-human IgG (H&L) or 555 anti-rabbit IgG F(ab′)2 fragment. Nuclear DNA was stained with 4′,6-dimidyl-2-phenylindole (DAPI). Immunofluorescence was recorded with an Olympus BK71 confocal microscope.
SKBR3 cells were incubated with ADC molecules at 37° C. for 45 or 90 min. Unbound ADC was removed by washing cells in a culture medium, then the cells were fixed and permeabilized. The marker proteins LAMP-1, GM130 and clathrin were detected with their respective antibodies and a secondary antibody conjugated to Alex®555 (red). Anti-Trop-2 ADC was detected with DyLight®488-conjugated secondary antibody (green). DAPI was used to stain nuclear DNA (blue).

Data set [4] deals with tumor cell lines with different expression levels of Trop-2. The data set can be described thus: Cell viability assay (CCK-8), comparison across the cell panel. It is filed as cell-based. The protocol:
Cell viability was determined using Cell Counting Kit 8 (CCK-8). Cells were seeded into 96-well plates at 3000-10000 cells/well. After incubation overnight, drugs were added at different concentrations. Plates were incubated in a 5% CO2, 37° C. humidified chamber for 96 hours. CCK8 reagent was added thereto and the plates were placed back to the incubator until the absorbance at 450 nm of untreated control cells was greater than 1.0. Growth inhibition was measured as the percent growth relative to untreated cells. Dose response curve was generated from the mean values of two or three tests, and IC50 values were calculated using Prism GraphPad software.
The anti-tumor efficacy of different payloads on different tumor cell lines was detected by CCK-8, and the results are shown in FIG. 5.

For the substance hRS7-VK-PTX, the “inhibition of transplanted tumor” value is recorded as “more effective than hRS7-VK-SN38” in the data set with COLO205 cells and “more effective than hRS7-VK-SN38” in the data set with HCC1806 cells (HCC1806 xenograft, intraperitoneal, days 7, 10, 14, P<0.05 vs hRS7-VK-SN38 on day 20). The “tumor growth inhibition index (TGI)” value in data set [1] came out at 99.5%. Further, the “tumor inhibitory effect compared with PTX” value in the data set on HCC1806 cells (HCC1806 model, 30 mg/kg (1.3 mg/kg PTX equivalent)) is given as “comparable to that of 10 mg/kg of PTX”. Moreover, in data set [2], the “adverse effects or weight loss in treated mice” value was “did not cause adverse effects or weight loss”. Further, in the data set on NCIH1688 cells, the “killing effect on transplanted tumors not expressing Trop-2” value is recorded as “had no such effect”. In addition, in data set [3], the internalization rate result was “faster than hRS7-VK-MMAE and hRS7-VK-SN38”. Besides, the “internalization and intracellular localization” value with SKBR3 cells is “co-localization of hRS7-VK-PTX molecule with lysosomes and clathrin heavy chain”. Also, in data set [4] (COL0205, MDA-MB-231, SK - MES-1, Capan-1, NCIH2452), the “efficacy of ADC in tumor cell lines with low expression of Trop-2” value is “more effective than hRS7-VK-MMAE and hRS7-VK-SN38”. In data set [4] (SKBR3, CFPAC-1, MDA-MB-231 and COLO205), the “inhibitory effect in PTX-resistant tumor cell lines” value was “good inhibitory effect”.
